This note sets out measurements from DBAASP.

Among the test systems are Candida krusei ATCC 6258; Shigella dysenteriae; Escherichia coli IS37#; Escherichia coli IS218#; Escherichia coli IS117#; Micrococcus luteus; Escherichia coli D22; Escherichia coli D31; Botrytis cinerea; Aerococcus viridans; Alternaria brassicicola; Fusarium culmorum; Klebsiella pneumoniae; Bacillus megaterium; Neurospora crassa; Streptococcus agalactiae; Candida albicans; Candida glabrata.

Common to all, as to test: ≥ marks a high value that may be exact or a test limit, other limits are often not marked, values filed in µg/mL are converted to µM
The test system of experiment [1] is Staphylococcus epidermidis ATCC 12228.
For experiment [2], the system named is Staphylococcus aureus ATCC 33591.
Experiment [3] concerns Staphylococcus aureus S015.
The subject of experiment [4] is Enterobacter cloacae ATCC 13047.
Experiment [5] concerns Pseudomonas aeruginosa ATCC 27853.
Experiment [6] deals with Candida glabrata ATCC 90030.
For experiment [7], the system named is Escherichia coli ATCC 25922.
In experiment [8] the test system is Enterococcus faecalis ATCC 29212.
For experiment [9], the system named is Staphylococcus aureus ATCC 29213.
For experiment [10], the system named is Candida albicans ATCC 90028.
The test system of experiment [11] is Enterococcus faecalis ATCC 4028.
The subject of experiment [12] is Pseudomonas aeruginosa ATCC 13388.
The test system of experiment [13] is Salmonella enterica subsp. enterica serovar Typhimurium ATCC 14028.
Experiment [14] relates to Klebsiella pneumoniae ATCC 10031.
In experiment [15] the test system is Staphylococcus aureus ATCC 6538.
Experiment [16] deals with Escherichia coli ATCC 11219.
In experiment [17] the test system is Klebsiella pneumoniae IS59#.
For experiment [18], the system named is Staphylococcus aureus IS10#.
For experiment [19], the system named is Staphylococcus aureus ATCC 25923.
Experiment [20] concerns Pseudomonas aeruginosa CMCCB 1010.
For experiment [21], the system named is Candida albicans ATCC 2002.
The test system of experiment [22] is Klebsiella pneumoniae ATCC 700603.
Experiment [23] concerns Staphylococcus aureus IS37#.
Experiment [24] concerns Pseudomonas aeruginosa IS350#.
The subject of experiment [25] is Candida parapsilosis ATCC 22019.
In experiment [26] the test system is Mycobacterium tuberculosis.
Experiment [27] relates to Pseudomonas aeruginosa ATCC 9027.
In experiment [28] the test system is Mycobacterium tuberculosis H37Rv.
Experiment [29] relates to Saccharomyces cerevisiae S288C.

Structures are written as SMILES. In brackets after ≈: the same amount, converted by molar mass. Several values for one entry are separate records, joined by “and”; a condition that tells them apart may be missing. Equal entries are not always repeated.

Usually MIC stands for the least concentration at which growth counts as inhibited. In the case of `CC[C@H](C)[C@H](NC(=O)[C@H](CC(C)C)NC(=O)CNC(=O)CNC(=O)[C@@H](NC(=O)[C@H](CC(C)C)NC(=O)[C@H](CO)NC(=O)[C@@H]1CCCN1C(=O)[C@@H](NC(=O)[C@H](CC(C)C)NC(=O)[C@H](CO)NC(=O)[C@H](Cc1ccccc1)NC(=O)[C@@H](N)Cc1ccccc1)[C@@H](C)CC)C(C)C)C(=O)N[C@@H](CO)C(=O)N[C@@H](C)C(=O)N[C@@H](Cc1ccccc1)C(=O)N[C@@H](CCCCN)C(N)=O` [FFSLIPSLVGGLISAFK], the MIC was 9.38 µM and 9.37 µM in experiment [1]; at least 69.5 µM in the experiment on Candida krusei ATCC 6258; 17.4 µM (≈ 31.2 µg/mL) in experiment [2]; at least 139 µM in experiment [3]; at least 150 µM in experiment [4]; above 150 µM in experiment [5]. Further, the MIC is at least 69.5 µM in experiment [6]; above 139 µM in experiment [7]; above 139 µM in experiment [8]; 8.68 µM and 9.37 µM in experiment [9]; at least 34.8 µM in experiment [10]; at least 150 µM in [11].
On to `CC[C@H](C)[C@H](NC(=O)[C@H](CC(=O)O)NC(=O)[C@H](Cc1cnc[nH]1)NC(=O)[C@H](C)NC(=O)CN)C(=O)N[C@@H](CC(C)C)C(=O)N[C@@H](CCCCN)C(=O)N[C@@H](Cc1ccc(O)cc1)C(=O)NCC(=O)N[C@@H](CCCCN)C(=O)N1CCC[C@H]1C(=O)N[C@@H](CO)C(N)=O` [GAHDILKYGKPS], for which the MIC was at least 50 µM in [12]; above 50 µM in experiment [13]; at least 50 µM in experiment [14]; 30 µM (≈ 38.5 µg/mL) in [15]; at least 50 µM in [16].
Regarding `CC[C@H](C)[C@H](NC(=O)CNC(=O)[C@H](CO)NC(=O)[C@H](CC(C)C)NC(=O)[C@H](CC(C)C)NC(=O)CN)C(=O)N[C@@H](CC(C)C)C(=O)NCC(=O)N[C@@H](C)C(=O)NCC(=O)N[C@@H](CCCCN)C(=O)N[C@@H](CCCN=C(N)N)C(=O)N[C@H](C(=O)N[C@H](C(=O)N[C@H]1CSSC[C@@H](C(=O)O)NC(=O)[C@H](CC(C)C)NC(=O)CNC(=O)[C@H](CO)NC(=O)[C@H](CC(C)C)NC(=O)CNC1=O)C(C)C)[C@@H](C)CC` [GLLSGILGAGKRIVCGLSGLC], the MIC in [17] stood at 10.1 µM (≈ 20 µg/mL); with Shigella dysenteriae, 5.03 µM (≈ 9.99 µg/mL); in experiment [18] it was 2.52 µM (≈ 5 µg/mL); in [4], 2.52 µM (≈ 5 µg/mL); in experiment [19], 5.03 µM (≈ 9.99 µg/mL); in experiment [5] it was 5.03 µM (≈ 9.99 µg/mL). Also, the MIC in [20] was 0.503 µM (≈ 0.999 µg/mL); against Escherichia coli IS37#, 5.03 µM (≈ 9.99 µg/mL); in experiment [21] it was 1.01 µM (≈ 2 µg/mL); in experiment [7] it was 2.52 µM (≈ 5 µg/mL); in experiment [8] it was 5.03 µM (≈ 9.99 µg/mL); in [22], 0.503 µM (≈ 0.999 µg/mL). Also, the MIC was 1.26 µM (≈ 2.5 µg/mL) in [10]; 10.1 µM (≈ 20 µg/mL) with Escherichia coli IS218#; 5.03 µM (≈ 9.99 µg/mL) in experiment [23]; 10.1 µM (≈ 20 µg/mL) in experiment [24]; 5.03 µM (≈ 9.99 µg/mL) against Escherichia coli IS117#; 2.52 µM (≈ 5 µg/mL) in experiment [25].
Take `CC[C@H](C)[C@H](N)C(=O)N[C@H](C(=O)N[C@@H](Cc1ccc(O)cc1)C(=O)N[C@H]1CSSC[C@@H](C(=O)N[C@@H](CCC(N)=O)C(=O)N[C@@H](CCCN=C(N)N)C(=O)N[C@@H](CCSC)C(=O)O)NC(=O)[C@H](CCCCN)NC(=O)CNC(=O)[C@H]([C@@H](C)O)NC(=O)[C@H](CCCN=C(N)N)NC(=O)[C@H](CCCN=C(N)N)NC(=O)[C@H](CC(N)=O)NC1=O)[C@@H](C)CC` [IIYCNRRTGKCQRM]: the MIC turned out to be 7.07 µM (≈ 12.3 µg/mL) with Micrococcus luteus; 28.3 µM (≈ 49.2 µg/mL) in the experiment on Escherichia coli D22; 28.3 µM (≈ 49.2 µg/mL) in the experiment on Escherichia coli D31; 14.1 µM (≈ 24.6 µg/mL) with Botrytis cinerea; 1.73 µM (≈ 3.01 µg/mL) in the experiment with Aerococcus viridans; 7.07 µM (≈ 12.3 µg/mL) against Alternaria brassicicola. Besides, the MIC against Fusarium culmorum turned out to be 28.3 µM (≈ 49.2 µg/mL); against Klebsiella pneumoniae, 28.3 µM (≈ 49.2 µg/mL); in the experiment on Bacillus megaterium, 14.1 µM (≈ 24.6 µg/mL); in the experiment with Neurospora crassa it was 28.3 µM (≈ 49.2 µg/mL).
Consider `CC[C@H](C)[C@H](NC(=O)[C@H](CCCCN)NC(=O)[C@H](CCCCN)NC(=O)[C@@H](NC(=O)[C@H](C)NC(=O)[C@H](CO)NC(=O)[C@@H](NC(=O)[C@H](C)NC(=O)[C@H](CO)NC(=O)[C@@H]1CCCN1C(=O)[C@@H](NC(=O)[C@H](CC(C)C)NC(=O)[C@H](CO)NC(=O)[C@H](CC(C)C)NC(=O)[C@H](CC(C)C)NC(=O)[C@H](Cc1ccccc1)NC(=O)[C@H](Cc1ccccc1)NC(=O)[C@@H]1CCCN1C(=O)[C@@H](N)CC(C)C)[C@@H](C)CC)[C@@H](C)CC)[C@@H](C)CC)C(N)=O` [LPFFLLSLIPSAISAIKKI], for which the MIC in experiment [19] stood at 2.5 µM (≈ 5.18 µg/mL); in experiment [26], 4.8 µM (≈ 9.94 µg/mL); in [27], 2.5 µM (≈ 5.18 µg/mL); in experiment [7], 24 µM (≈ 49.7 µg/mL); in the experiment on Streptococcus agalactiae, 2.5 µM (≈ 5.18 µg/mL); against Candida albicans it was 6.25 µM (≈ 12.9 µg/mL). For the same molecule, the MIC against Candida glabrata was at least 50 µM; in experiment [28], 17.4 µM (≈ 36 µg/mL).
As to `CC(C)C[C@H](NC(=O)[C@H](CC(N)=O)NC(=O)[C@H](Cc1c[nH]c2ccccc12)NC(=O)[C@@H](NC(=O)CNC(=O)CNC(=O)[C@H](CCCN=C(N)N)NC(=O)[C@H](CC(=O)O)NC(=O)[C@H](CC(C)C)NC(=O)[C@H](CCCN=C(N)N)NC(=O)[C@@H](N)CCCN=C(N)N)C(C)C)C(=O)N[C@@H](CC(N)=O)C(=O)N[C@H](C(=O)N[C@@H](CC(N)=O)C(=O)N1CCC[C@H]1C(=O)NCC(=O)N[C@H](C(=O)N[C@H](C(=O)NCC(=O)N[C@@H](C)C(=O)N[C@@H](CCCN=C(N)N)C(=O)N[C@H](C(=O)N[C@@H](Cc1c[nH]c2ccccc12)C(=O)N[C@@H](C)C(=O)N[C@@H](CCCN=C(N)N)C(=O)N[C@H](C(=O)N[C@@H](CCCCN)C(N)=O)[C@@H](C)O)C(C)C)[C@@H](C)O)[C@@H](C)O)C(C)C` [RRLDRGGVWNLNVNPGTTGARVWARTK], in [29], the MIC was at least 40 µM.
